In patent KR20100138114A, “안정성이 향상된 무정형 아데포비어 디피복실 고체분산체 및 이의 제조방법” (대원제약주식회사, priority 2009, dated 2010):

Legend:
[1] = Crystal form conversion test of crystalline adefovir dipivoxil (Experimental Example 1, X-ray diffraction); format: physicochemical; settings: overall conclusion: 40 °C, relative humidity 75%, 3 days, then drying at 60 °C
[2] = pH 2.0; cited from earlier work

SMILES	crystal form conversion depending on storage conditions [1]	solubility class (BCS) [2]
CC(C)(C)C(=O)OCOP(=O)(COCCn1cnc2c(N)ncnc21)OCOC(=O)C(C)(C)C [신규결정형]	결정형이 전환	
CC(C)(C)C(=O)OCOP(=O)(COCCn1cnc2c(N)ncnc21)OCOC(=O)C(C)(C)C [아데포비어 디피복실, 9-[2-[[{bis(pivaloyloxy)-methoxy}phosphinyl]methoxy]ethyl]adenine]		높은 용해도(High solubility)
